The values that follow come from article PMC8389907 (Journal of Medicinal Chemistry, 2021).

Assay [1] concerns DU145 cells. Nature of the assay: MTT cell viability assay, DU145. The format is cell-based. The conditions noted are these: Homo sapiens, DU-145. The protocol:
(§1) The cell lines DU145 (HTB-81, human prostate carcinoma), PC3 (CRL-1435, human prostate adenocarcinoma), MCF7 (HTB-22, human breast adenocarcinoma), MDA-MB231 (HTB-26, human breast adenocarcinoma), and HCT116 (CCL-247, human colorectal carcinoma) were obtained from ATCC (American Type Culture Collection, Manassas, VA, USA); WH1 human fibroblasts were kindly provided by Dr. Guven.[51] All the cells were maintained under standard culture conditions (37 °C; 5% CO2) in the RMPI1640 medium (PC3, MCF7, and MDA-MB231 cells), while DU145 and HCT116 cells were in the DMEM and Iscove’s medium (WH1 cells) supplemented with 10% fetal calf serum, 1% glutamine, and 1% antibiotics mixture; for HCT116 and DU145 cells, 1% sodium pyruvate and 1% non-essential amino acids were also added to the culture medium.
(§2) The 3-(4,5-dimethylthiazol-2-yl)-2,5-diphenyltetrazolium bromide (MTT) assay was performed on all the cell lines tested as previously described[52] with minor modifications. Briefly, according to the growth profiles previously defined for each cell line, adequate numbers of cells were plated in each well of a 96-well plate in 0.1 mL of complete culture medium. Cells were allowed to attach for 24 h before the treatment at 37 °C for 72 h with the compounds at concentrations ranging between 0.1 and 75 μM, bringing the final volume to 0.2 mL/well. Each experiment included eight replications per concentration tested; control samples were run with 0.2% DMSO. At the end of the incubation period, MTT (0.05 mL of a 2 mg/mL stock solution in PBS) was added to each well for 3 h at 37 °C. Cell supernatants were then carefully removed, the blue formazan crystals formed through MTT reduction by metabolically active cells were dissolved in 0.120 mL of DMSO, and the corresponding optical densities were measured at 570 nm using a Universal Microplate Reader EL800 (Bio-Tek, Winooski, VT).
(§3) IC50 values were estimated from the resulting concentration–response curves by nonlinear regression analysis using GraphPad Prism software, v. 5.0 (GraphPad, San Diego, CA, USA). Differences between IC50 values were evaluated statistically by analysis of variance with a Bonferroni post-test for multiple comparisons.

Assay [2] relates to PC3 cells. Nature of the assay: MTT cell viability assay, PC3. The format is cell-based. The conditions noted are these: Homo sapiens, PC-3. The method, then:
as §1, §2, §3

For another assay, the system named is MCF7 cells. Nature of the assay: MTT cell viability assay, MCF7. It counts as cell-based. The conditions noted are these: Homo sapiens, 72 h treatment, MTT, read-out: IC50 MCF7. The protocol: as §1, §2, §3
For orientation: Formazan colour is commonly taken as a measure of viable cells.

The next assay concerns MDA-MB231 cells. Nature of the assay: MTT cell viability assay, MDA-MB231. To be noted: Homo sapiens, MDA-MB-231. It counts as cell-based. The method, then: as §1, §2, §3
In another assay the test system is HCT116 cells. Nature of the assay: MTT cell viability assay, HCT116. It counts as cell-based. The conditions noted are these: Homo sapiens, HCT-116. The protocol:
as §1, §2, §3

In another assay the test system is MCF7/ADR cells. Nature of the assay: MTT cell viability assay, DOX-resistant MCF7/ADR. The format is cell-based, human. The conditions noted are these: for IC50: Homo sapiens, NCI/ADR-RES, 72 h treatment, MTT; for R.I. (resistance index): MCF7/ADR vs MCF7. The method, then:
as §2, §3

The next assay has as its system WH1 human fibroblasts. Nature of the assay: MTT cell viability assay, WH1 fibroblasts. The conditions noted are these: Fibroblast, 72 h treatment. The format is cell-based. The method, then: as §1, §2, §3
For another assay, the system named is HBL100 cells. Nature of the assay: MTT cell viability assay, non-tumorigenic HBL100. The format is cell-based. To be noted: Homo sapiens, HBL-100, 72 h treatment. The method, then: as §2, §3
Assay [3] concerns DU145 cells. Nature of the assay: MTT assay with 1 h irradiation, DU145. It counts as cell-based, human. The conditions noted are these: 24 h treatment, 1 h white or blue light, 48 h drug-free medium. The protocol:
(§4) To evaluate the contribution of NO release on cell viability, the MTT assay was performed on DU145 and PC3 cells following treatment with 7b and 7c with 1 h irradiation and 48 h incubation in a drug-free medium.
as §3

Assay [4] has as its system PC3 cells. Nature of the assay: MTT assay with 1 h irradiation, PC3. The format is cell-based, human. The conditions noted are these: 24 h treatment, 1 h white or blue light, 48 h drug-free medium. The method, then:
as §4, §3

In assay [5] the test system is P. aeruginosa PAO1. The assay can be described thus: Minimum inhibitory concentration, broth dilution. The format is cell-based. The conditions noted are these: Pseudomonas aeruginosa; 24 h incubation at 37 °C, strain PAO1. The protocol:
P. aeruginosa PAO1 was chosen as a model microorganism[53] and was grown overnight in a Luria Bertani (LB) medium at 37 °C on an orbital shaker at 200 rpm. Minimum inhibitory concentrations (MICs) of quinolone and quinolone derivatives were determined against P. aeruginosa PAO1 by a broth dilution method. Overnight cultures were diluted 100-fold to give a cellular concentration of 10^7 CFU/mL. […] The assays were performed at least three times.
(Broth dilution looks for growth in wells or tubes with falling amounts of substance.)

The test system of assay [6] is P. aeruginosa PAO1. The assay can be described thus: Antimicrobial photo-inactivation test, P. aeruginosa. The format is cell-based, Pseudomonas aeruginosa. To be noted: 10 μM, 10 min dark incubation, 405 ± 10 nm, 20 J/cm^2. The method, then:
(§5) Upon the overnight growth of P. aeruginosa PAO1 and S. aureus ATCC6538P (methicillin susceptible S. aureus, MSSA), cultures were diluted in phosphate buffer (PBS–KH2PO4/K2HPO4, 10 mM, pH 7.4) to reach a concentration of ∼10^6 CFU/mL. Compound 7c was added to a cell suspension at a final concentration of 10 μM. Cells were incubated in the dark for 10 min and then irradiated under light at […] (20 J/cm^2) or incubated in the dark as a control. Soon after irradiation, the bacterial concentration was evaluated by the viability count technique. Briefly, an aliquot of each sample was 10-fold serially diluted in PBS and a volume of 10 μL of each diluted and undiluted sample was inoculated on LB agar. After overnight incubation at 37 °C, the corresponding cellular concentration was calculated and expressed as CFU/mL.

The next assay has as its system S. aureus ATCC 6538P. Nature of the assay: Antimicrobial photo-inactivation test, S. aureus. The format is cell-based, Staphylococcus aureus. To be noted: 10 μM, 10 min dark incubation, blue light 20 J/cm^2. The method, then:
as §5

Setting [7] is: 72 h treatment, MTT, read-out: IC50 DU145.
Where [8] appears, read: supplement csv, unit inferred, read-out: DU145 IC50.
[9] abbreviates: 72 h treatment, MTT, read-out: IC50 MDA-MB231.
Setting [10] is: 72 h treatment, MTT, read-out: IC50 HCT116.
Setting [11] is: 72 h treatment, MTT, read-out: IC50 PC3.

Values after ≈ are worked out from the molar mass of the structure shown. Like-named read-outs stand apart in the source and are kept apart here.

Consider `O=C(O)c1cn(C2CC2)c2cc(N3CCN(CCCNc4ccc([N+](=O)[O-])c(C(F)(F)F)c4)CC3)c(F)cc2c1=O` [Compound 7b, 1-Cyclopropyl-6-fluoro-7-(4-(3-((4-nitro-3-(trifluoromethyl)phenyl)amino)propyl)piperazin-1-yl)-4-oxo-1,4-dihydroquinoline-3-carboxylic Acid], for which the IC50 in the assay on DU145 cells [1] (setting [7]) is below 3 µM; in the assay with DU145 cells [1] (setting [8]), 2.42 ± 0.9 µM; in the assay with PC3 cells [2] (supplement csv, unit inferred, read-out: PC3 IC50) it was 3.02 ± 0.59 µM; with MCF7 cells, 5.23 ± 0.82 µM; in the assay on MDA-MB231 cells (setting [9]), below 2.5 µM; in the assay on MDA-MB231 cells (supplement csv, unit inferred, read-out: MDA-MB231 IC50), 2.51 ± 0.43 µM. In addition, the IC50 in the assay with HCT116 cells (setting [10]) was found to be 1.83 µM; in the assay on MCF7/ADR cells, 23.6 ± 3.6 µM; in the assay on WH1 human fibroblasts, 7.05 ± 1.2 µM; in the assay on HBL100 cells it was 9.19 ± 0.66 µM. In addition, the “R.I. (resistance index)” value with MCF7/ADR cells amounted to 4.5. In addition, the “IC50, irradiated vs kept in the dark, DU145” value with DU145 cells [3] is listed as “no differences in IC50 values”. The “IC50, irradiated vs kept in the dark, PC3” value in the assay on PC3 cells [4] is “no differences in IC50 values”.

With `O=C(O)c1cn(C2CC2)c2cc(N3CCNCC3)c(F)cc2c1=O` [Cip, Ciprofloxacin, reference compound], the IC50 with DU145 cells [1] (setting [7]) was 24.9 ± 0.8 µM; in the assay with PC3 cells [2] (setting [11]), 33.9 ± 2.9 µM; in the assay on MCF7 cells it was 8.85 ± 0.09 µM; with MDA-MB231 cells (setting [9]), 19.9 ± 3.6 µM; in the assay on HCT116 cells (setting [10]), 31.5 ± 1.5 µM; in the assay on MCF7/ADR cells, 19.1 ± 0.5 µM. The minimum inhibitory concentration (MIC) in the assay with P. aeruginosa PAO1 [5] was found to be 1.82 ± 1.19 µg/mL (≈ 5.49 µM).

Regarding `CCn1cc(C(=O)O)c(=O)c2cc(F)c(N3CCN(CCNc4ccc([N+](=O)[O-])c(C(F)(F)F)c4)CC3)cc21` [Compound 7c, 1-Ethyl-6-fluoro-7-(4-(2-((4-nitro-3-(trifluoromethyl)phenyl)amino)ethyl)piperazin-1-yl)-4-oxo-1,4-dihydroquinoline-3-carboxylic Acid], the IC50 was 1.57 ± 0.59 µM in the assay with DU145 cells [1] (setting [8]); 2.33 µM in the assay on PC3 cells [2] (setting [11]); 2.27 µM with MCF7 cells; 1.52 µM with MDA-MB231 cells (setting [9]); 2.15 ± 0.39 µM with HCT116 cells (supplement csv, unit inferred, read-out: HCT116 IC50); 18.3 ± 1.4 µM in the assay with MCF7/ADR cells. Moreover, the IC50 came out at 3.51 ± 0.4 µM in the assay with WH1 human fibroblasts and 11.1 ± 0.2 µM in the assay on HBL100 cells. Also, the “R.I. (resistance index)” value in the assay on MCF7/ADR cells stood at 8.1. For the same molecule, in the assay with P. aeruginosa PAO1 [6], the “antimicrobial activity upon blue light irradiation” value is “did not show any antimicrobial activity”. In addition, in the assay with S. aureus ATCC 6538P, the “decrease in viable S. aureus with respect to the dark incubated control” value was determined as 2 log unit. In the assay with DU145 cells [3], the “IC50, irradiated vs kept in the dark, DU145” value was “no differences in IC50 values”. The “IC50, irradiated vs kept in the dark, PC3” value with PC3 cells [4] was “no differences in IC50 values”.

`CCn1cc(C(=O)O)c(=O)c2cc(F)c(N3CCNCC3)cc21` [Nor, Norfloxacin, reference compound]: the IC50 came to 12 ± 0.6 µM with DU145 cells [1] (setting [7]); 33.6 ± 3 µM with PC3 cells [2] (setting [11]); 19.4 ± 0.7 µM with MCF7 cells; 14.9 ± 2.7 µM with MDA-MB231 cells (setting [9]); 12.5 ± 2.6 µM in the assay with HCT116 cells (setting [10]); 20.1 ± 1.4 µM with MCF7/ADR cells. Also, the IC50 in the assay on WH1 human fibroblasts came to 14.1 ± 2.1 µM; in the assay on HBL100 cells, 12.4 ± 0.8 µM. For the same molecule, the “R.I. (resistance index)” value in the assay with MCF7/ADR cells stood at 1.0. Also, the MIC in the assay on P. aeruginosa PAO1 [5] turned out to be 4.16 ± 1.8 µg/mL (≈ 13 µM).

The term IC50 denotes the concentration needed to halve the response being measured. What is called MIC is the lowest concentration found to suppress growth. Read a low MIC as a more susceptible organism.
